Experiment [1] deals with GluN2B glutamate receptors (Homo sapiens (Human), UniProt Q05586+Q13224). Description: Whole-cell patch clamp of mammalian cells (Ionworks Barracuda), positive allosteric modulation, GluN2B. It counts as cell-based. Conditions: for Emax: read-out: Avg Emax 2B (%). The procedure, abridged:
(§1)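 Perforated-patch whole-cell recording, holding −70 mV, −40 mV during application; Cs-based internal pH 7.2, external with 5 mM CaCl2 pH 7.4. Test article pre-applied alone 5 min, then co-applied with EC20 L-glutamate plus 30 μM glycine. EC50 from Hill fit of % activation over the EC20 current.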

Experiment [2] concerns the target GlunN1/GluN2A glutamate receptors (Homo sapiens (Human), UniProt Q05586+Q12879). Description: Whole-cell patch clamp of mammalian cells (Ionworks Barracuda), positive allosteric modulation, GluN1/GluN2A. The class given is cell-based. In a few lines:
as §1

[3] abbreviates: % potentiation of current elicited with EC20 L-glutamate and 30 μM glycine.
[4] abbreviates: HEK293 cells, % potentiation of current elicited with EC20 L-glutamate and 30 μM glycine, read-out: Avg Emax 2A (%).
Setting [5] is: co-application with EC20 L-glutamate and 30 μM glycine, 8-point concentration-response, read-out: Avg EC50 2B.
Setting [6] is: HEK293 cells, co-application with EC20 L-glutamate and 30 μM glycine, 8-point concentration-response, read-out: Avg EC50 2A.
Setting [7] is: HEK293, read-out: Avg Emax 2A (%).

pEC50: −log10 of the molar value. Read-outs that look alike come from different tables or passages of the source.

Chain of GluN2B glutamate receptors (Q13224 27-1484, other chains not shown): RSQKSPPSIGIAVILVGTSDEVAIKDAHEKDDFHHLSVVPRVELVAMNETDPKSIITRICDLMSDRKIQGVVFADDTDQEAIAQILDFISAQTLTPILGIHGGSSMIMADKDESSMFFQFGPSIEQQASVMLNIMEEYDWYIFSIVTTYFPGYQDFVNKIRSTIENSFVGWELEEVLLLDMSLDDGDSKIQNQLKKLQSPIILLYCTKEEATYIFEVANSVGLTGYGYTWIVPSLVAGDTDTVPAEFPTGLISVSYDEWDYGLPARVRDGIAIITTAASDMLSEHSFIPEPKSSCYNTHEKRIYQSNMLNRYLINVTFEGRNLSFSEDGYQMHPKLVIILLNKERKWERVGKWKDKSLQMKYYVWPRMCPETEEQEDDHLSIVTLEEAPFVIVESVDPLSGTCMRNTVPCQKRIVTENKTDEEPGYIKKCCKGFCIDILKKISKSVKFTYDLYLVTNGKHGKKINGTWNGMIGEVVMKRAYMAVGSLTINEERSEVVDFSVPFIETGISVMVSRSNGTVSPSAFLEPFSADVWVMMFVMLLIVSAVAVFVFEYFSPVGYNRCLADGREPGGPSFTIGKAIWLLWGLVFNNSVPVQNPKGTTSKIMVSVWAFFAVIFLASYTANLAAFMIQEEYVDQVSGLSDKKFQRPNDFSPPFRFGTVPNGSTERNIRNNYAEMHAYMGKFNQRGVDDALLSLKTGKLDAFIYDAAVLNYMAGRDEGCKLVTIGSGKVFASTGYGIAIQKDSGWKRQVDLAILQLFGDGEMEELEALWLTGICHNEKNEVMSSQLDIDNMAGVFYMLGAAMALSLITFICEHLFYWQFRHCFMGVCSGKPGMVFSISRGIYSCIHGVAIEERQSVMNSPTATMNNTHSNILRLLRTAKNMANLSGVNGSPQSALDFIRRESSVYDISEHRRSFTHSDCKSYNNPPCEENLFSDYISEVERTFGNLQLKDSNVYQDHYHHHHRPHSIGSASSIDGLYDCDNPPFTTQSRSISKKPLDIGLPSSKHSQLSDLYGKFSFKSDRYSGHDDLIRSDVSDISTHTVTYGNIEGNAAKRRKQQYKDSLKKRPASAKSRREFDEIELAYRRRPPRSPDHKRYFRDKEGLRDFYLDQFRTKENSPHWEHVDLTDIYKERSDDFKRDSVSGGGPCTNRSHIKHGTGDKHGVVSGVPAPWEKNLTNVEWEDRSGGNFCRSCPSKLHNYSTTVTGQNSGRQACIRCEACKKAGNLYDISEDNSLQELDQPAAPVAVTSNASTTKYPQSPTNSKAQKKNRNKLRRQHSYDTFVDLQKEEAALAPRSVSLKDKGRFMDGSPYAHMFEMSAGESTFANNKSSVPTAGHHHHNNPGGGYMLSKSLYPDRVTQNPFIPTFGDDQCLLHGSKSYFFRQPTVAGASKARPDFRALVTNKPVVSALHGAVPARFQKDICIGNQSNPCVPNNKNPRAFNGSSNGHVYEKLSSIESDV
Chain of GlunN1/GluN2A glutamate receptors (Q12879 23-1464, other chains not shown): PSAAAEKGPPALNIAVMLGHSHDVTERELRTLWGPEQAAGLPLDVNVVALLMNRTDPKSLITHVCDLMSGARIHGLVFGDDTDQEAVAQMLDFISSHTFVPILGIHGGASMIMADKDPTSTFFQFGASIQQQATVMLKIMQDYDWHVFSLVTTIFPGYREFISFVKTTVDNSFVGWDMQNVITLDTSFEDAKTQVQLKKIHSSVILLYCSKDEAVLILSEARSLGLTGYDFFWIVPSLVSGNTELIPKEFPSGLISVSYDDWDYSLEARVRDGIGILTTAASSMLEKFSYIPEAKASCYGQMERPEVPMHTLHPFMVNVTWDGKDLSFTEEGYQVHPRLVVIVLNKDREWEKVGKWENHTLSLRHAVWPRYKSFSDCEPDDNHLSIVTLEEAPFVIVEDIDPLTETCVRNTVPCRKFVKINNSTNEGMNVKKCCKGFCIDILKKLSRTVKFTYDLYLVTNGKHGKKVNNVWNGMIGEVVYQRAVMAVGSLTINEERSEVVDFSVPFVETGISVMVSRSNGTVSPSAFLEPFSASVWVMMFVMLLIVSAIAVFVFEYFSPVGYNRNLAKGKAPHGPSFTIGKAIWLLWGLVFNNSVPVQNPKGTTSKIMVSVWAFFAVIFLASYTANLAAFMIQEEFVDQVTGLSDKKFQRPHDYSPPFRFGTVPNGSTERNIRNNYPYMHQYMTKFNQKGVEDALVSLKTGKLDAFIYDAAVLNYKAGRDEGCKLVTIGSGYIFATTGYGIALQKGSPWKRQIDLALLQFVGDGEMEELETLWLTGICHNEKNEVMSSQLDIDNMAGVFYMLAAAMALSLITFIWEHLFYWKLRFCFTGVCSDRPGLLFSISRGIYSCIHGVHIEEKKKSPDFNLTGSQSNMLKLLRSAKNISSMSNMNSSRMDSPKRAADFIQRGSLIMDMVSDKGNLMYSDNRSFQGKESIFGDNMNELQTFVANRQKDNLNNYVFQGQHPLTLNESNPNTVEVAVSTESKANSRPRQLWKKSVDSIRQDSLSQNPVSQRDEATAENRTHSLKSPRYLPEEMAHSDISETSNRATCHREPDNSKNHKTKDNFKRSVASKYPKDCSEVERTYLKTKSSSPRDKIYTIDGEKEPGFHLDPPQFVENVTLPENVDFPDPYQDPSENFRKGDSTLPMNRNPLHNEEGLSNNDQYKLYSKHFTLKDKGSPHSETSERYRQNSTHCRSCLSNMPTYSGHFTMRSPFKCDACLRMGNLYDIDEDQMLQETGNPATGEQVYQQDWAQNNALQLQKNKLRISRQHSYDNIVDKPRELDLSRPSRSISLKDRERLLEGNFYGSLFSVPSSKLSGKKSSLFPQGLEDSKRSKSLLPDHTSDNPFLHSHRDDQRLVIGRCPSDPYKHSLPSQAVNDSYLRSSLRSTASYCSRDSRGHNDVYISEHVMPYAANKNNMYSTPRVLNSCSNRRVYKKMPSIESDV

With `CC[C@]1(O)CC[C@@]2(C)C(=CC[C@H]3[C@@H]4CC[C@H]([C@H](C)CC[C@@H](O)Cc5ccccc5)[C@@]4(C)CC[C@@H]32)C1` [Compound 6052], the pEC50 was 6.63 in experiment [1] and 6.37 in experiment [2]. The Emax in experiment [1] (setting [3]) was 92.2%; in experiment [2] (setting [4]), 102%.

In the case of `CC[C@]1(O)CC[C@@]2(C)C(=CC[C@H]3[C@@H]4CC[C@H]([C@H](C)CC[C@H](O)c5ccccn5)[C@@]4(C)CC[C@@H]32)C1` [Compound 6347], the pEC50 in experiment [1] was 6.51; in experiment [2] it was 6.57. Besides, the Emax in experiment [1] (setting [3]) came to 132%; in experiment [2] (setting [4]), 64.7%.

With `CC[C@]1(O)CC[C@@]2(C)C(=CC[C@H]3[C@@H]4CC[C@H]([C@H](C)CC[C@@H](O)c5ccccn5)[C@@]4(C)CC[C@@H]32)C1` [Compound 6348], the figures for the pEC50 in experiment [1] and in experiment [2] were 6.18 and 6.59, respectively. Also, the Emax in experiment [1] (setting [3]) turned out to be 133%; in experiment [2] (setting [4]), 79.7%.

In the case of `CC[C@]1(O)CC[C@@]2(C)C(=CC[C@H]3[C@@H]4CC[C@H]([C@H](C)CCC(O)c5ccccn5)[C@@]4(C)CC[C@@H]32)C1` (some centres unmarked) [Compound 6457], the pEC50 in experiment [1] is 6.28; in experiment [2], 6.14. For the same compound, the figures for the Emax in experiment [1] (setting [3]) and in experiment [2] (setting [4]) were 168% and 198%, respectively.

Consider `CC[C@]1(O)CC[C@@]2(C)C(=CC[C@H]3[C@@H]4CC[C@H]([C@H](C)CC[C@H](O)c5cccnc5)[C@@]4(C)CC[C@@H]32)C1` [Compound 6458], for which the pEC50 in experiment [1] was 6.03; in experiment [2], below 5.00. Further, the Emax in experiment [1] (setting [3]) was 79.4%; in experiment [2] (setting [4]), 30.9%.

Regarding `CC[C@]1(O)CC[C@@]2(C)C(=CC[C@H]3[C@@H]4CC[C@H]([C@H](C)CC[C@@H](O)c5cccnc5)[C@@]4(C)CC[C@@H]32)C1` [Compound 6459], the pEC50 was 6.04 in experiment [1] and 5.88 in experiment [2]. For the same compound, the figures for the Emax in experiment [1] (setting [3]) and in experiment [2] (setting [4]) were 184% and 156%, respectively.

Consider `CC[C@]1(O)CC[C@@]2(C)[C@@H](CC[C@@H]3[C@@H]2CC[C@]2(C)[C@@H]([C@H](C)CCC(O)c4ccccc4)CC[C@@H]32)C1` (some centres unmarked) [Compound 6544], for which the pEC50 in experiment [1] is 6.30; in experiment [2] it was 6.25. Further, the results for the Emax in experiment [1] (setting [3]) and in experiment [2] (setting [4]) were 415% and 253%, respectively.

In the case of `CC[C@]1(O)CC[C@@]2(C)[C@@H](CC[C@@H]3[C@@H]2CC[C@]2(C)[C@@H]([C@H](C)CC[C@@H](O)c4ccccc4)CC[C@@H]32)C1` [Compound 6571], the pEC50 in experiment [1] is 6.57; in experiment [2], 6.72. The Emax amounted to 241% in experiment [1] (setting [3]) and 158% in experiment [2] (setting [4]).

Take `CC[C@]1(O)CC[C@@]2(C)[C@@H](CC[C@@H]3[C@@H]2CC[C@]2(C)[C@@H]([C@H](C)CC[C@H](O)c4ccccc4)CC[C@@H]32)C1` [Compound 6572]: the pEC50 in experiment [1] was 5.87; in experiment [2] it was 6.42. Also, the Emax in experiment [1] (setting [3]) turned out to be 251%; in experiment [2] (setting [4]), 129%.

Regarding `CC[C@]1(O)CC[C@@]2(C)[C@@H](CC[C@@H]3[C@@H]2CC[C@]2(C)[C@@H]([C@H](C)CC[C@H](O)c4cccnc4)CC[C@@H]32)C1` [Compound 6754], the maximal effect (Emax) worked out at 38.8% in experiment [1] (setting [3]) and 22.3% in experiment [2] (setting [4]). Further, the pEC50 in experiment [1] (setting [5]) and in experiment [2] (setting [6]) was below 5.00 each time.

`CC[C@]1(O)CC[C@@]2(C)[C@@H](CC[C@@H]3[C@@H]2CC[C@]2(C)[C@@H]([C@H](C)CC[C@@H](O)c4cccnc4)CC[C@@H]32)C1` [Compound 6755]: the pEC50 in experiment [1] and in experiment [2] was below 5.00 in each case. Also, the Emax in experiment [1] (setting [3]) came to 44.2%; in experiment [2] (setting [4]), 22.8%.

For `CC[C@]1(O)CC[C@@]2(C)C(=CC[C@H]3[C@@H]4CC[C@H]([C@H](C)CC[C@H](O)c5cccc(F)c5)[C@@]4(C)CC[C@@H]32)C1` [Compound 6896], the values for the pEC50 in experiment [1] and in experiment [2] were 5.78 and 6.28, respectively. The values for the Emax in experiment [1] (setting [3]) and in experiment [2] (setting [4]) were 402% and 216%, respectively.

For the compound `CC[C@]1(O)CC[C@@]2(C)C(=CC[C@H]3[C@@H]4CC[C@H]([C@H](C)CC[C@@H](O)c5cccc(C#N)c5)[C@@]4(C)CC[C@@H]32)C1` [Compound 6997], the pEC50 in experiment [1] is 6.38; in experiment [2], 6.43. Further, the values for the Emax in experiment [1] (setting [3]) and in experiment [2] (setting [4]) were 315% and 327%, respectively.

Take `CC[C@]1(O)CC[C@@]2(C)C(=CC[C@H]3[C@@H]4CC[C@H]([C@H](C)CC[C@H](O)c5cccc(C#N)c5)[C@@]4(C)CC[C@@H]32)C1` [Compound 6998]: the Emax in experiment [1] (setting [3]) was 303%; in experiment [2] (setting [4]), 338%. The pEC50 was 6.52 in experiment [1] (setting [5]) and 6.45 in experiment [2] (setting [6]).

As to `CC[C@]1(O)CC[C@@]2(C)[C@@H](CC[C@@H]3[C@@H]2CC[C@]2(C)[C@@H]([C@H](C)CC[C@@H](O)c4ccccn4)CC[C@@H]32)C1` [Compound 7030], the Emax in experiment [1] (setting [3]) turned out to be 74.7%; in experiment [2] (setting [4]) it was 28.3%.

Turning to `CC[C@]1(O)CC[C@@]2(C)[C@@H](CC[C@@H]3[C@@H]2CC[C@]2(C)[C@@H]([C@H](C)CC[C@H](O)c4ccccn4)CC[C@@H]32)C1` [Compound 7032], the pEC50 in experiment [1] was 6.06. The Emax stood at 63.8% in experiment [1] (setting [3]) and 28.3% in experiment [2] (setting [4]).

As to `CC[C@]1(O)CC[C@@]2(C)C(=CC[C@H]3[C@@H]4CC[C@H]([C@H](C)CC[C@@H](O)c5ccc(F)cc5)[C@@]4(C)CC[C@@H]32)C1` [Compound 7147], in experiment [1], the pEC50 is 7.04 and the Emax turned out to be 242%. The Emax in experiment [2] (setting [7]) worked out at 200%.

In the case of `CC[C@]1(O)CC[C@@]2(C)C(=CC[C@H]3[C@@H]4CC[C@H]([C@H](C)CC[C@@H](O)c5ccccc5F)[C@@]4(C)CC[C@@H]32)C1` [Compound 7282], the pEC50 in experiment [1] is 6.76; in experiment [2], 7.02.

As for `CC[C@]1(O)CC[C@@]2(C)C(=CC[C@H]3[C@@H]4CC[C@H]([C@H](C)CC[C@H](O)c5ccccc5C#N)[C@@]4(C)CC[C@@H]32)C1` [Compound 7300], the pEC50 in experiment [1] and in experiment [2] was below 5.00 throughout. Further, the Emax came to 46.9% in experiment [1] (setting [3]) and 37.5% in experiment [2] (setting [4]).

For `CC[C@]1(O)CC[C@@]2(C)C(=CC[C@H]3[C@@H]4CC[C@H]([C@H](C)CC[C@@H](O)c5ccccc5C#N)[C@@]4(C)CC[C@@H]32)C1` [Compound 7399], the pEC50 was 5.80 in experiment [1] and 6.16 in experiment [2]. The Emax came out at 180% in experiment [1] (setting [3]) and 150% in experiment [2] (setting [4]).

Consider `C[C@H](CC[C@](C)(O)c1ccccc1)[C@H]1CC[C@H]2[C@@H]3CC=C4C[C@@](C)(O)CC[C@]4(C)[C@H]3CC[C@]12C` [Compound 7468], for which the Emax in experiment [1] was 317%; in experiment [2] (setting [7]), 273%.

For the compound `CC[C@]1(O)CC[C@H]2[C@@H](CC[C@@H]3[C@@H]2CC[C@]2(C)[C@@H]([C@H](C)CCC4(O)CC4)CC[C@@H]32)C1` [Compound 8127], the pEC50 was 6.24 in experiment [1] and 6.27 in experiment [2]. Further, the Emax in experiment [1] (setting [3]) turned out to be 211%; in experiment [2] (setting [4]) it was 136%.

Regarding `CC[C@]1(O)CC[C@H]2C(=CC[C@@H]3[C@@H]2CC[C@]2(C)[C@@H]([C@H](C)CCC4(O)CC4)CC[C@@H]32)C1` [Compound 8245], the pEC50 was 6.57 in experiment [1] and 6.28 in experiment [2]. Also, the maximal response (Emax) was 120% in experiment [1] (setting [3]) and 73% in experiment [2] (setting [4]).

On to `CC[C@]1(O)CC[C@H]2C(=CC[C@@H]3[C@@H]2CC[C@]2(C)[C@@H]([C@H](C)CCC(O)C(C)(C)C)CC[C@@H]32)C1` (some centres unmarked) [Compound 8361], for which the pEC50 was 6.87 in experiment [1] and 7.06 in experiment [2]. In addition, the maximal response (Emax) was 309% in experiment [1] and 252% in experiment [2] (setting [7]).

In the case of `CC[C@]1(O)CC[C@H]2C(=CC[C@@H]3[C@@H]2CC[C@]2(C)[C@@H]([C@H](C)CC[C@H](O)C(C)(C)C)CC[C@@H]32)C1` [Compound 8378], the pEC50 in experiment [1] was 6.68; in experiment [2], 6.91. The Emax in experiment [1] is 259%; in experiment [2] (setting [7]) it was 195%.

`CC[C@]1(O)CC[C@H]2C(=CC[C@@H]3[C@@H]2CC[C@]2(C)[C@@H]([C@H](C)CC[C@@H](O)C(C)(C)C)CC[C@@H]32)C1` [Compound 8379]: the pEC50 was 7.11 in experiment [1] and 7.13 in experiment [2]. Besides, the Emax in experiment [1] is 359%; in experiment [2] (setting [7]), 252%.

For the compound `CC[C@]1(O)CC[C@H]2C(=CC[C@@H]3[C@@H]2CC[C@]2(C)[C@@H]([C@H](C)CC[C@H](O)C(C)C)CC[C@@H]32)C1` [Compound 8462], the pEC50 was 7.02 in experiment [1] and 6.77 in experiment [2].

Consider `CC[C@]1(O)CC[C@H]2C(=CC[C@@H]3[C@@H]2CC[C@]2(C)[C@@H]([C@H](C)CC[C@@H](O)C(C)C)CC[C@@H]32)C1` [Compound 8463], for which the negative-log EC50 (pEC50) in experiment [1] is 7.07; in experiment [2] it was 6.99.

On to `CCC(O)CC[C@@H](C)[C@H]1CC[C@H]2[C@@H]3CC=C4C[C@](O)(CC)CC[C@@H]4[C@H]3CC[C@]12C` (some centres unmarked) [Compound 8564], for which the values for the pEC50 in experiment [1] and in experiment [2] were 6.31 and 6.33, respectively. Besides, the Emax in experiment [1] (setting [3]) was 310%; in experiment [2] (setting [4]) it was 252%.

The values above are taken from patent US11149054B2, “Oxysterols and methods of use thereof” (Sage Therapeutics, Inc., priority 2016, dated 2021).
